Values after ≈ are worked out from the molar mass of the structure shown.
Columns and labels:
Format in all cases: cell-based
S. aureus MP-12 = test: microbe, parasite or virus in culture; conditions: Staphylococcus aureus, MP12, read-out: MIC S. aureus MP-12
E. coli MP-4 = test: MIC determination by CLSI broth dilution, E. coli MP-4; conditions: strain MP-4; for MIC: Escherichia coli, MP4, CLSI broth dilution
K. pneumoniae MP-546 = test: MIC determination by CLSI broth dilution, K. pneumoniae MP-546; conditions: strain MP-546; for MIC: Klebsiella pneumoniae, MP546, CLSI broth dilution
K. pneumoniae MP-648 = test: MIC determination by CLSI broth dilution, K. pneumoniae MP-648; conditions: strain MP-648; for MIC: Klebsiella pneumoniae, MP648, CLSI broth dilution
P. aeruginosa MP-3 = test: MIC determination by CLSI broth dilution, P. aeruginosa MP-3; conditions: Pseudomonas aeruginosa, MP3, strain MP-3
A. baumannii MP-15 = test: MIC determination by CLSI broth dilution, A. baumannii MP-15; conditions: Acinetobacter baumannii, MP15, strain MP-15, read-out: MIC A. baumanii MP-15

Compound	MIC (S. aureus MP-12) [µg/mL]	MIC (E. coli MP-4) [µg/mL]	MIC (K. pneumoniae MP-546) [µg/mL]	MIC (K. pneumoniae MP-648) [µg/mL]	MIC (P. aeruginosa MP-3) [µg/mL]	MIC (A. baumannii MP-15) [µg/mL]	MIC E. coli MP-4 (E. coli MP-4; CLSI broth dilution)	MIC K. pneumoniae MP-546 (K. pneumoniae MP-546; CLSI broth dilution)	MIC K. pneumoniae MP-648 (K. pneumoniae MP-648; CLSI broth dilution)
CO[C@]1(C)C[C@@H](C)CN(C)[C@H](CCCN(C)C(C)C)COC(=O)C(C)(C)C(=O)[C@H](C)[C@H]1O[C@@H]1O[C@H](C)C[C@H](N(C)C)[C@H]1O [Compound 12, (3R,6R,8R,9R,10R)-9-(((2S,3R,4S,6R)-4-(dimethylamino)-3-hydroxy-6-methyltetrahydro-2H-pyran-2-yl)oxy)-3-(3-(isopropyl(methyl)amino)propyl)-8-methoxy-4,6,8,10,12,12-hexamethyl-1-oxa-4-azacyclotridecane-11,13-dione]	4 to 32 (≈ 6.52 to 52.1 µM)	< 4	< 4	< 4	> 32	> 32			
CCCN1C[C@H](C)C[C@@](C)(OC)[C@H](O[C@@H]2O[C@H](C)C[C@H](N(C)C)[C@H]2O)[C@@H](C)C(=O)C(C)(C)C(=O)OC[C@@H]1CCCN(C)C(C)C [Compound 18, (3S,6R,8R,9R,10R)-9-(((2S,3R,4S,6R)-4-(dimethylamino)-3-hydroxy-6-methyltetrahydro-2H-pyran-2-yl)oxy)-3-(3-(isopropyl(methyl)amino)propyl)-8-methoxy-6,8,10,12,12-pentamethyl-4-propyl-1-oxa-4-azacyclotridecane-11,13-dione]	< 4	< 4	< 4	< 4	> 32	> 32			
CCCN1C[C@H](C)C[C@@](C)(OC)[C@H](O[C@@H]2O[C@H](C)C[C@H](N(C)C)[C@H]2O)[C@@H](C)C(=O)C(C)(C)C(=O)OC[C@H]1CCCN(C)C [Compound 21, (3R,6R,8R,9R,10R)-9-(((2S,3R,4S,6R)-4-(dimethylamino)-3-hydroxy-6-methyltetrahydro-2H-pyran-2-yl)oxy)-3-(3-(dimethylamino)propyl)-8-methoxy-6,8,10,12,12-pentamethyl-4-propyl-1-oxa-4-azacyclotridecane-11,13-dione]	4 to 32 (≈ 6.52 to 52.1 µM)	< 4	< 4	< 4	< 4	> 32			
CCCCCCCN1CCC([C@@H](O)[C@H]2COC(=O)C(C)(C)C(=O)[C@H](C)[C@@H](O[C@@H]3O[C@H](C)C[C@H](N(C)C)[C@H]3O)[C@](C)(OC)C[C@@H](C)CN2C)CC1 [Compound 22]	> 32	< 4	4 to 32 (≈ 5.62 to 44.9 µM)	> 32	> 32	> 32			
CO[C@]1(C)C[C@@H](C)CN(C)[C@@H]([C@H](O)C2CCN(CC3CC3)CC2)COC(=O)C(C)(C)C(=O)[C@H](C)[C@H]1O[C@@H]1O[C@H](C)C[C@H](N(C)C)[C@H]1O [Compound 23, (3R,6R,8R,9R,10R)-3-((R)-(1-(cyclopropylmethyl)piperidin-4-yl)(hydroxy)methyl)-9-(((2S,3R,4S,6R)-4-(dimethylamino)-3-hydroxy-6-methyltetrahydro-2H-pyran-2-yl)oxy)-8-methoxy-4,6,8,10,12,12-hexamethyl-1-oxa-4-azacyclotridecane-11,13-dione]	4 to 32 (≈ 5.99 to 47.9 µM)	4 to 32 (≈ 5.99 to 47.9 µM)	4 to 32 (≈ 5.99 to 47.9 µM)	4 to 32 (≈ 5.99 to 47.9 µM)	> 32	> 32			
CCCN1CCC([C@@H](O)[C@H]2COC(=O)C(C)(C)C(=O)[C@H](C)[C@@H](O[C@@H]3O[C@H](C)C[C@H](N(C)C)[C@H]3O)[C@](C)(OC)C[C@@H](C)CN2C)CC1 [Compound 24]	4 to 32 (≈ 6.1 to 48.8 µM)	4 to 32 (≈ 6.1 to 48.8 µM)	4 to 32 (≈ 6.1 to 48.8 µM)	> 32	> 32	> 32			
CO[C@]1(C)C[C@@H](C)CN(C)[C@@H]([C@H](O)C2CCN(CC3CCCCC3)CC2)COC(=O)C(C)(C)C(=O)[C@H](C)[C@H]1O[C@@H]1O[C@H](C)C[C@H](N(C)C)[C@H]1O [Compound 25]	> 32	< 4	4 to 32 (≈ 5.63 to 45.1 µM)	4 to 32 (≈ 5.63 to 45.1 µM)	> 32	> 32			
CO[C@]1(C)C[C@@H](C)CN(C)[C@H]([C@@H](O)C2CCN(CC3CC3)CC2)COC(=O)C(C)(C)C(=O)[C@H](C)[C@H]1O[C@@H]1O[C@H](C)C[C@H](N(C)C)[C@H]1O [Compound 26]	> 32				> 32	> 32	+++ (values less than or equal to 4 mg/L)	++ (values of greater than 4 mg/L and less than or equal to 32 mg/L)	++ (values of greater than 4 mg/L and less than or equal to 32 mg/L)
CO[C@]1(C)C[C@@H](C)CN(C)[C@H]([C@@H](O)C2CCN(C(C)C)CC2)COC(=O)C(C)(C)C(=O)[C@H](C)[C@H]1O[C@@H]1O[C@H](C)C[C@H](N(C)C)[C@H]1O [Compound 27]	> 32	4 to 32 (≈ 6.1 to 48.8 µM)	4 to 32 (≈ 6.1 to 48.8 µM)	> 32	> 32	> 32			
COCO[C@@H](C1CCN(CC2CC2)CC1)[C@@H]1COC(=O)C(C)(C)C(=O)[C@H](C)[C@@H](O[C@@H]2O[C@H](C)C[C@H](N(C)C)[C@H]2O)[C@](C)(OC)C[C@@H](C)CN1C [Compound 29]	4 to 32 (≈ 5.62 to 44.9 µM)	4 to 32 (≈ 5.62 to 44.9 µM)	> 32	> 32	> 32	> 32			
COCCCN1CCC(C[C@@H]2COC(=O)C(C)(C)C(=O)[C@H](C)[C@@H](O[C@@H]3O[C@H](C)C[C@H](N(C)C)[C@H]3O)[C@](C)(OC)C[C@@H](C)CN2C)CC1 [Compound 50]	4 to 32 (≈ 5.97 to 47.8 µM)	< 4	< 4	< 4	> 32	> 32			

Source: US12552825B2 (Zikani Therapeutics, Inc., priority 2019, dated 2026)
